Experimental data taken from ChEMBL document CHEMBL4813932, “Terpenoid Constituents of Perovskia artemisioides Aerial Parts with Inhibitory Effects on Bacterial Biofilm Growth” (2021).

Assays:
Assay in all cases: microbe, parasite or virus in culture
Format in all cases: functional
Acinetobacter baumannii [1] = conditions: ATCC 19606 = CIP 70.34 = JCM 6841, time 48 hrs
Description: Antibiofilm activity against Acinetobacter baumannii ATCC 19606 assessed as inhibition of bacterial metabolism within the biofilm at 4 ug/ml measured after 48 hrs by MTT assay relative to control

Pseudomonas aeruginosa [2] = conditions: ATCC 50071, time 48 hrs
Description: Antibiofilm activity against Pseudomonas aeruginosa ATCC 50071 assessed as inhibition of bacterial metabolism within the biofilm at 8 ug/ml measured after 48 hrs by MTT assay relative to control

Pseudomonas aeruginosa [3] = conditions: ATCC 50071, time 48 hrs; remark: listed apart in the source
Description: Antibiofilm activity against Pseudomonas aeruginosa ATCC 50071 assessed as inhibition of biofilm formation at 8 ug/ml measured after 48 hrs by crystal violet staining based assay relative to control

Acinetobacter baumannii [4] = conditions: ATCC 19606 = CIP 70.34 = JCM 6841, time 48 hrs; remark: listed apart in the source
Description: Antibiofilm activity against Acinetobacter baumannii ATCC 19606 assessed as inhibition of bacterial metabolism within the biofilm at 8 ug/ml measured after 48 hrs by MTT assay relative to control

Escherichia coli [5] = conditions: DSM 8579, time 48 hrs
Description: Antibiofilm activity against Escherichia coli DSM 8579 assessed as inhibition of bacterial metabolism within the biofilm at 80 ug/ml measured after 48 hrs by MTT assay relative to control

Acinetobacter baumannii [6] = conditions: ATCC 19606 = CIP 70.34 = JCM 6841, time 48 hrs; remark: listed apart in the source
Description: Antibiofilm activity against Acinetobacter baumannii ATCC 19606 assessed as inhibition of biofilm formation at 8 ug/ml measured after 48 hrs by crystal violet staining based assay relative to control

Escherichia coli [7] = conditions: DSM 8579, time 48 hrs; remark: listed apart in the source
Description: Antibiofilm activity against Escherichia coli DSM 8579 assessed as inhibition of biofilm formation at 80 ug/ml measured after 48 hrs by crystal violet staining based assay relative to control

Staphylococcus aureus [8] = conditions: ATCC 25923, time 48 hrs
Description: Antibiofilm activity against Staphylococcus aureus ATCC 25923 assessed as inhibition of bacterial metabolism within the biofilm at 4 ug/ml measured after 48 hrs by MTT assay relative to control

Escherichia coli [9] = conditions: DSM 8579, time 48 hrs; remark: listed apart in the source
Description: Antibiofilm activity against Escherichia coli DSM 8579 assessed as inhibition of biofilm formation at 40 ug/ml measured after 48 hrs by crystal violet staining based assay relative to control

Listeria monocytogenes [10] = conditions: ATCC 7644, time 48 hrs
Description: Antibiofilm activity against Listeria monocytogenes ATCC 7644 assessed as inhibition of bacterial metabolism within the biofilm at 4 ug/ml measured after 48 hrs by MTT assay relative to control

[11] = tested on: Pectobacterium carotovorum; conditions: ATCC 15713, time 48 hrs
Description: Antibiofilm activity against Pectobacterium carotovorum ATCC 15713 assessed as inhibition of biofilm formation at 8 ug/ml measured after 48 hrs by crystal violet staining based assay relative to control

[12] = tested on: Pectobacterium carotovorum; conditions: ATCC 15713, time 48 hrs; remark: listed apart in the source
Description: Antibiofilm activity against Pectobacterium carotovorum ATCC 15713 assessed as inhibition of bacterial metabolism within the biofilm at 4 ug/ml measured after 48 hrs by MTT assay relative to control

Pseudomonas aeruginosa [13] = conditions: ATCC 50071, time 48 hrs; remark: listed apart in the source
Description: Antibiofilm activity against Pseudomonas aeruginosa ATCC 50071 assessed as inhibition of bacterial metabolism within the biofilm at 4 ug/ml measured after 48 hrs by MTT assay relative to control

Acinetobacter baumannii [14] = conditions: ATCC 19606 = CIP 70.34 = JCM 6841, time 48 hrs; remark: listed apart in the source
Description: Antibiofilm activity against Acinetobacter baumannii ATCC 19606 assessed as inhibition of biofilm formation at 4 ug/ml measured after 48 hrs by crystal violet staining based assay relative to control

Staphylococcus aureus [15] = conditions: ATCC 25923, time 48 hrs; remark: listed apart in the source
Description: Antibiofilm activity against Staphylococcus aureus ATCC 25923 assessed as inhibition of biofilm formation at 8 ug/ml measured after 48 hrs by crystal violet staining based assay relative to control

Pseudomonas aeruginosa [16] = conditions: ATCC 50071, time 48 hrs; remark: listed apart in the source
Description: Antibiofilm activity against Pseudomonas aeruginosa ATCC 50071 assessed as inhibition of biofilm formation at 4 ug/ml measured after 48 hrs by crystal violet staining based assay relative to control

[17] = tested on: Pectobacterium carotovorum; conditions: ATCC 15713, time 48 hrs; remark: listed apart in the source
Description: Antibiofilm activity against Pectobacterium carotovorum ATCC 15713 assessed as inhibition of biofilm formation at 4 ug/ml measured after 48 hrs by crystal violet staining based assay relative to control

[18] = tested on: Pectobacterium carotovorum; conditions: ATCC 15713, time 48 hrs; remark: listed apart in the source
Description: Antibiofilm activity against Pectobacterium carotovorum ATCC 15713 assessed as inhibition of bacterial metabolism within the biofilm at 8 ug/ml measured after 48 hrs by MTT assay relative to control

Listeria monocytogenes [19] = conditions: ATCC 7644, time 48 hrs; remark: listed apart in the source
Description: Antibiofilm activity against Listeria monocytogenes ATCC 7644 assessed as inhibition of biofilm formation at 8 ug/ml measured after 48 hrs by crystal violet staining based assay relative to control

Staphylococcus aureus [20] = conditions: ATCC 25923, time 48 hrs; remark: listed apart in the source
Description: Antibiofilm activity against Staphylococcus aureus ATCC 25923 assessed as inhibition of biofilm formation at 4 ug/ml measured after 48 hrs by crystal violet staining based assay relative to control

Staphylococcus aureus [21] = conditions: ATCC 25923, time 48 hrs; remark: listed apart in the source
Description: Antibiofilm activity against Staphylococcus aureus ATCC 25923 assessed as inhibition of bacterial metabolism within the biofilm at 8 ug/ml measured after 48 hrs by MTT assay relative to control

Listeria monocytogenes [22] = conditions: ATCC 7644, time 48 hrs; remark: listed apart in the source
Description: Antibiofilm activity against Listeria monocytogenes ATCC 7644 assessed as inhibition of biofilm formation at 4 ug/ml measured after 48 hrs by crystal violet staining based assay relative to control

Escherichia coli [23] = conditions: DSM 8579, time 48 hrs; remark: listed apart in the source
Description: Antibiofilm activity against Escherichia coli DSM 8579 assessed as inhibition of bacterial metabolism within the biofilm at 40 ug/ml measured after 48 hrs by MTT assay relative to control

Listeria monocytogenes [24] = conditions: ATCC 7644, time 48 hrs; remark: listed apart in the source
Description: Antibiofilm activity against Listeria monocytogenes ATCC 7644 assessed as inhibition of bacterial metabolism within the biofilm at 8 ug/ml measured after 48 hrs by MTT assay relative to control

| Structure (SMILES) | inhibition at 4 µg/mL (Acinetobacter baumannii [1]) | inhibition at 8 µg/mL (Pseudomonas aeruginosa [2]) | inhibition at 8 µg/mL (Pseudomonas aeruginosa [3]) | inhibition at 8 µg/mL (Acinetobacter baumannii [4]) | inhibition at 80 µg/mL (Escherichia coli [5]) | inhibition at 8 µg/mL (Acinetobacter baumannii [6]) | inhibition at 80 µg/mL (Escherichia coli [7]) | inhibition at 4 µg/mL (Staphylococcus aureus [8]) | inhibition at 40 µg/mL (Escherichia coli [9]) | inhibition at 4 µg/mL (Listeria monocytogenes [10]) | inhibition at 8 µg/mL [11] | inhibition at 4 µg/mL [12] | inhibition at 4 µg/mL (Pseudomonas aeruginosa [13]) | inhibition at 4 µg/mL (Acinetobacter baumannii [14]) | inhibition at 8 µg/mL (Staphylococcus aureus [15]) | inhibition at 4 µg/mL (Pseudomonas aeruginosa [16]) | inhibition at 4 µg/mL [17] | inhibition at 8 µg/mL [18] | inhibition at 8 µg/mL (Listeria monocytogenes [19]) | inhibition at 4 µg/mL (Staphylococcus aureus [20]) | also measured |
| --- | --- | --- | --- | --- | --- | --- | --- | --- | --- | --- | --- | --- | --- | --- | --- | --- | --- | --- | --- | --- | --- |
| CC(C)c1cc2c(c(O)c1O)[C@@]13CCCC(C)(C)[C@@H]1[C@H](OC3=O)[C@H]2O [ROSMANOL] | 6.9% | 9.5% | 73.1% | 20.3% | 0% | 55.5% | 0% | 63.8% | 0% | 24.9% | 26.2% | 45.6% | 3.7% | 44.2% | 79.9% | 68.4% | 0% | 46.6% | 68.7% | 45.1% | inhibition at 8 µg/mL (Staphylococcus aureus [21]): 70.6%; inhibition at 4 µg/mL (Listeria monocytogenes [22]): 47.3%; inhibition at 40 µg/mL (Escherichia coli [23]): 0%; inhibition at 8 µg/mL (Listeria monocytogenes [24]): 39.8% |
| CC(C)c1cc2c(c(O)c1O)[C@@]13CCCC(C)(C)[C@@H]1[C@H](OC3=O)[C@@H]2O [EPIROSMANOL] | 8.9% | 9.2% | 74.8% | 11.1% | 0% | 56.9% | 11.3% | 0% | 0% | 24.7% | 53.8% | 32.5% | 0% | 26.3% | 81.7% | 70.7% | 33.6% | 56.3% | 63.4% | 68.4% | inhibition at 8 µg/mL (Staphylococcus aureus [21]): 23.6%; inhibition at 4 µg/mL (Listeria monocytogenes [22]): 0%; inhibition at 40 µg/mL (Escherichia coli [23]): 0%; inhibition at 8 µg/mL (Listeria monocytogenes [24]): 55.6% |
| CC(C)c1cc2c(c(O)c1O)[C@@]13CCCC(C)(C)[C@@H]1C[C@@H]2OC3=O [CARNOSOL] | 7.1% | 5.4% | 88.5% | 49% | 0% | 47.2% | 0% | 68.2% | 0% | 27.6% | 100% | 35.8% | 0% | 43.2% | 100% | 39% | 49.1% | 69.1% | 46.7% | 95.9% | inhibition at 8 µg/mL (Staphylococcus aureus [21]): 84.8%; inhibition at 4 µg/mL (Listeria monocytogenes [22]): 17.2%; inhibition at 40 µg/mL (Escherichia coli [23]): 0%; inhibition at 8 µg/mL (Listeria monocytogenes [24]): 40.4% |
| CC(C)c1cc2c(c(O)c1O)[C@@]1(C(=O)O)CCCC(C)(C)[C@@H]1CC2 [CARNOSIC ACID] | 36.3% | 42.7% | 83% | 57% | 10.7% | 91.2% | 78.5% | 33.5% | 60% | 33.3% | 25.8% | 41.3% | 27.7% | 18.9% | 83.7% | 51.7% | 43.6% | 47.3% | 0% | 64.1% | inhibition at 8 µg/mL (Staphylococcus aureus [21]): 35.5%; inhibition at 4 µg/mL (Listeria monocytogenes [22]): 0%; inhibition at 40 µg/mL (Escherichia coli [23]): 2.7%; inhibition at 8 µg/mL (Listeria monocytogenes [24]): 55.6% |
| CO[C@@H]1c2cc(C(C)C)c(O)c(O)c2[C@@]23CCCC(C)(C)[C@@H]2[C@@H]1OC3=O | 49.2% | 1.5% | 76.5% | 38.8% | 6.1% | 21% | 0% | 45.3% | 0% | 23.6% | 67.7% | 4.4% | 0% | 12.7% | 91.8% | 55.8% | 35.5% | 5.7% | 0% | 34.4% | inhibition at 8 µg/mL (Staphylococcus aureus [21]): 34.6%; inhibition at 4 µg/mL (Listeria monocytogenes [22]): 0%; inhibition at 40 µg/mL (Escherichia coli [23]): 0%; inhibition at 8 µg/mL (Listeria monocytogenes [24]): 29.7% |
